We go through 18 molecules from the NIST ThermoML archive (doi:10.1016/j.jct.2011.11.021).

± gives the expanded uncertainty stated by the source.

A short description of the first data set: activity coefficient (dimensionless); of the first substance listed, at infinite dilution; xn = mol fraction of the nth substance listed. To be noted: 348.15 K; Liquid; Chromatography; x1 = 0.
For `c1ccccc1` [benzene] + COCC[N+]1(C)CCOCC1.O=S(=O)([N-]S(=O)(=O)C(F)(F)F)C(F)(F)F, the activity coefficient is 1.32 ± 0.09.
Still for that read-out and setting: the value for `CC1CCCCC1` [methylcyclohexane] + COCC[N+]1(C)CCOCC1.O=S(=O)([N-]S(=O)(=O)C(F)(F)F)C(F)(F)F was 20.9 ± 1.4; that for `CCCCCCCCCC` [decane] + COCC[N+]1(C)CCOCC1.O=S(=O)([N-]S(=O)(=O)C(F)(F)F)C(F)(F)F was 126 ± 9.
On the same count and under the same terms, the value for `C#CCCCCCC` [1-octyne] + COCC[N+]1(C)CCOCC1.O=S(=O)([N-]S(=O)(=O)C(F)(F)F)C(F)(F)F was 10.3 ± 0.7; that for `CCCCCCC` [heptane] + COCC[N+]1(C)CCOCC1.O=S(=O)([N-]S(=O)(=O)C(F)(F)F)C(F)(F)F was 39.7 ± 2.7.
In the case of `C=CCCCC` [hex-1-ene] + COCC[N+]1(C)CCOCC1.O=S(=O)([N-]S(=O)(=O)C(F)(F)F)C(F)(F)F, the activity coefficient turned out to be 13.6 ± 0.9.
On to `C=CCCC` [1-pentene] + COCC[N+]1(C)CCOCC1.O=S(=O)([N-]S(=O)(=O)C(F)(F)F)C(F)(F)F, for which the activity coefficient amounted to 9.25 ± 0.63.
For `CO` [methanol] + COCC[N+]1(C)CCOCC1.O=S(=O)([N-]S(=O)(=O)C(F)(F)F)C(F)(F)F, the activity coefficient came out at 1.02 ± 0.06.
The same measure, in the same setting: as for `CC(C)OC(C)C` [diisopropyl ether] + COCC[N+]1(C)CCOCC1.O=S(=O)([N-]S(=O)(=O)C(F)(F)F)C(F)(F)F, the figure is 9.26 ± 0.63.
On the same count and under the same terms, the value for `CCOC(C)(C)C` [2-ethoxy-2-methylpropane] + COCC[N+]1(C)CCOCC1.O=S(=O)([N-]S(=O)(=O)C(F)(F)F)C(F)(F)F was 8.75 ± 0.6; that for `c1ccsc1` [thiophene] + COCC[N+]1(C)CCOCC1.O=S(=O)([N-]S(=O)(=O)C(F)(F)F)C(F)(F)F was 1.08 ± 0.07; that for `CC#N` [acetonitrile] + COCC[N+]1(C)CCOCC1.O=S(=O)([N-]S(=O)(=O)C(F)(F)F)C(F)(F)F was 0.431 ± 0.035.
The same measure, in the same setting: as for `Cc1ccc(C)cc1` [1,4-dimethylbenzene] + COCC[N+]1(C)CCOCC1.O=S(=O)([N-]S(=O)(=O)C(F)(F)F)C(F)(F)F, the figure is 3 ± 0.2.
Turning to `C1CCCCCCC1` [cyclooctane] + COCC[N+]1(C)CCOCC1.O=S(=O)([N-]S(=O)(=O)C(F)(F)F)C(F)(F)F, the activity coefficient was 26.7 ± 1.8.
`CCCC(=O)OC` [methyl butanoate] + COCC[N+]1(C)CCOCC1.O=S(=O)([N-]S(=O)(=O)C(F)(F)F)C(F)(F)F: the activity coefficient was 1.45 ± 0.1.
With `CC(C)O` [propan-2-ol] + COCC[N+]1(C)CCOCC1.O=S(=O)([N-]S(=O)(=O)C(F)(F)F)C(F)(F)F, the activity coefficient came out at 1.63 ± 0.11.
`C1COCCO1` [1,4-dioxane] + COCC[N+]1(C)CCOCC1.O=S(=O)([N-]S(=O)(=O)C(F)(F)F)C(F)(F)F: the activity coefficient was found to be 0.638 ± 0.044.
On to `CC(C)(C)O` [2-methylpropan-2-ol] + COCC[N+]1(C)CCOCC1.O=S(=O)([N-]S(=O)(=O)C(F)(F)F)C(F)(F)F, for which the activity coefficient worked out at 1.75 ± 0.12.

Staying with this data set, now noted: 358.15 K; Liquid; Chromatography; x1 = 0.
`c1ccccc1` [benzene] + COCC[N+]1(C)CCOCC1.O=S(=O)([N-]S(=O)(=O)C(F)(F)F)C(F)(F)F: the activity coefficient is 1.31 ± 0.09.
Same read-out and setting: the value for `CC1CCCCC1` [methylcyclohexane] + COCC[N+]1(C)CCOCC1.O=S(=O)([N-]S(=O)(=O)C(F)(F)F)C(F)(F)F was 19.2 ± 1.3; that for `CCCCCCCCCC` [decane] + COCC[N+]1(C)CCOCC1.O=S(=O)([N-]S(=O)(=O)C(F)(F)F)C(F)(F)F was 111 ± 8; that for `C#CCCCCCC` [1-octyne] + COCC[N+]1(C)CCOCC1.O=S(=O)([N-]S(=O)(=O)C(F)(F)F)C(F)(F)F was 9.93 ± 0.68.
The same measure, in the same setting: the value for `CCCCCCC` [heptane] + COCC[N+]1(C)CCOCC1.O=S(=O)([N-]S(=O)(=O)C(F)(F)F)C(F)(F)F was 36.2 ± 2.5.
With `C=CCCCC` [hex-1-ene] + COCC[N+]1(C)CCOCC1.O=S(=O)([N-]S(=O)(=O)C(F)(F)F)C(F)(F)F, the activity coefficient was found to be 12.9 ± 0.9.
Take `C=CCCC` [1-pentene] + COCC[N+]1(C)CCOCC1.O=S(=O)([N-]S(=O)(=O)C(F)(F)F)C(F)(F)F: the activity coefficient was 8.83 ± 0.6.
Still for that read-out and setting: as for `CO` [methanol] + COCC[N+]1(C)CCOCC1.O=S(=O)([N-]S(=O)(=O)C(F)(F)F)C(F)(F)F, the figure is 0.95 ± 0.06; as for `CC(C)OC(C)C` [diisopropyl ether] + COCC[N+]1(C)CCOCC1.O=S(=O)([N-]S(=O)(=O)C(F)(F)F)C(F)(F)F, 8.98 ± 0.61.
For the molecule `CCOC(C)(C)C` [2-ethoxy-2-methylpropane] + COCC[N+]1(C)CCOCC1.O=S(=O)([N-]S(=O)(=O)C(F)(F)F)C(F)(F)F, the activity coefficient amounted to 8.49 ± 0.58.
In the case of `c1ccsc1` [thiophene] + COCC[N+]1(C)CCOCC1.O=S(=O)([N-]S(=O)(=O)C(F)(F)F)C(F)(F)F, the activity coefficient amounted to 1.08 ± 0.07.
Turning to `CC#N` [acetonitrile] + COCC[N+]1(C)CCOCC1.O=S(=O)([N-]S(=O)(=O)C(F)(F)F)C(F)(F)F, the activity coefficient stood at 0.433 ± 0.035.
The same measure, in the same setting: as for `Cc1ccc(C)cc1` [1,4-dimethylbenzene] + COCC[N+]1(C)CCOCC1.O=S(=O)([N-]S(=O)(=O)C(F)(F)F)C(F)(F)F, the figure is 2.98 ± 0.2.
Same read-out and setting: the value for `C1CCCCCCC1` [cyclooctane] + COCC[N+]1(C)CCOCC1.O=S(=O)([N-]S(=O)(=O)C(F)(F)F)C(F)(F)F was 24.2 ± 1.7; that for `CCCC(=O)OC` [methyl butanoate] + COCC[N+]1(C)CCOCC1.O=S(=O)([N-]S(=O)(=O)C(F)(F)F)C(F)(F)F was 1.46 ± 0.1; that for `CC(C)O` [propan-2-ol] + COCC[N+]1(C)CCOCC1.O=S(=O)([N-]S(=O)(=O)C(F)(F)F)C(F)(F)F was 1.5 ± 0.1.
Same read-out and setting: the value for `C1COCCO1` [1,4-dioxane] + COCC[N+]1(C)CCOCC1.O=S(=O)([N-]S(=O)(=O)C(F)(F)F)C(F)(F)F was 0.653 ± 0.045.
Turning to `CC(C)(C)O` [2-methylpropan-2-ol] + COCC[N+]1(C)CCOCC1.O=S(=O)([N-]S(=O)(=O)C(F)(F)F)C(F)(F)F, the activity coefficient is 1.62 ± 0.11.

Staying with this data set, now noted: 368.15 K; Liquid; Chromatography; x1 = 0.
In the case of `c1ccccc1` [benzene] + COCC[N+]1(C)CCOCC1.O=S(=O)([N-]S(=O)(=O)C(F)(F)F)C(F)(F)F, the activity coefficient stood at 1.31 ± 0.09.
Turning to `CC1CCCCC1` [methylcyclohexane] + COCC[N+]1(C)CCOCC1.O=S(=O)([N-]S(=O)(=O)C(F)(F)F)C(F)(F)F, the activity coefficient was 17.7 ± 1.2.
The same measure, in the same setting: the value for `CCCCCCCCCC` [decane] + COCC[N+]1(C)CCOCC1.O=S(=O)([N-]S(=O)(=O)C(F)(F)F)C(F)(F)F was 98.2 ± 6.7; that for `C#CCCCCCC` [1-octyne] + COCC[N+]1(C)CCOCC1.O=S(=O)([N-]S(=O)(=O)C(F)(F)F)C(F)(F)F was 9.67 ± 0.66; that for `CCCCCCC` [heptane] + COCC[N+]1(C)CCOCC1.O=S(=O)([N-]S(=O)(=O)C(F)(F)F)C(F)(F)F was 33.1 ± 2.3.
Still for that read-out and setting: the value for `C=CCCCC` [hex-1-ene] + COCC[N+]1(C)CCOCC1.O=S(=O)([N-]S(=O)(=O)C(F)(F)F)C(F)(F)F was 12.1 ± 0.8; that for `C=CCCC` [1-pentene] + COCC[N+]1(C)CCOCC1.O=S(=O)([N-]S(=O)(=O)C(F)(F)F)C(F)(F)F was 8.35 ± 0.57.
Take `CO` [methanol] + COCC[N+]1(C)CCOCC1.O=S(=O)([N-]S(=O)(=O)C(F)(F)F)C(F)(F)F: the activity coefficient was 0.897 ± 0.057.
On to `CC(C)OC(C)C` [diisopropyl ether] + COCC[N+]1(C)CCOCC1.O=S(=O)([N-]S(=O)(=O)C(F)(F)F)C(F)(F)F, for which the activity coefficient was 8.75 ± 0.6.
Same read-out and setting: as for `CCOC(C)(C)C` [2-ethoxy-2-methylpropane] + COCC[N+]1(C)CCOCC1.O=S(=O)([N-]S(=O)(=O)C(F)(F)F)C(F)(F)F, the figure is 8.3 ± 0.57; as for `c1ccsc1` [thiophene] + COCC[N+]1(C)CCOCC1.O=S(=O)([N-]S(=O)(=O)C(F)(F)F)C(F)(F)F, 1.08 ± 0.07.
Same read-out and setting: as for `CC#N` [acetonitrile] + COCC[N+]1(C)CCOCC1.O=S(=O)([N-]S(=O)(=O)C(F)(F)F)C(F)(F)F, the figure is 0.436 ± 0.035; as for `Cc1ccc(C)cc1` [1,4-dimethylbenzene] + COCC[N+]1(C)CCOCC1.O=S(=O)([N-]S(=O)(=O)C(F)(F)F)C(F)(F)F, 2.96 ± 0.2; as for `C1CCCCCCC1` [cyclooctane] + COCC[N+]1(C)CCOCC1.O=S(=O)([N-]S(=O)(=O)C(F)(F)F)C(F)(F)F, 22.1 ± 1.5.
Regarding `CCCC(=O)OC` [methyl butanoate] + COCC[N+]1(C)CCOCC1.O=S(=O)([N-]S(=O)(=O)C(F)(F)F)C(F)(F)F, the activity coefficient worked out at 1.48 ± 0.1.
On to `CC(C)O` [propan-2-ol] + COCC[N+]1(C)CCOCC1.O=S(=O)([N-]S(=O)(=O)C(F)(F)F)C(F)(F)F, for which the activity coefficient turned out to be 1.4 ± 0.09.
Regarding `C1COCCO1` [1,4-dioxane] + COCC[N+]1(C)CCOCC1.O=S(=O)([N-]S(=O)(=O)C(F)(F)F)C(F)(F)F, the activity coefficient turned out to be 0.674 ± 0.046.
Consider `CC(C)(C)O` [2-methylpropan-2-ol] + COCC[N+]1(C)CCOCC1.O=S(=O)([N-]S(=O)(=O)C(F)(F)F)C(F)(F)F, for which the activity coefficient came to 1.52 ± 0.1.
